Data on one compound can be found in patent publication US8691799B2, “Materials and methods for treatment of cancer and identification of anti-cancer compounds” (priority 2001, dated 2014).

Series [1] has as its system phosphotyrosine STAT3. As to the kind of experiment: Cytoblot screening for phospho-STAT3 inhibition in v-Src-transformed NIH 3T3 cells. The class given is cell-based, murine. The conditions noted are these: 10 μM, 4 hr. How it is done:
Cytoblot Screening for Phospho-STAT3 Inhibition. NIH 3T3 cells stably transfected with v-Src or NIH 3T3 vector control cells (Turkson, J. et al. Mol. Cell Biol., 1999, 19:7519-7528) were plated into sterile, opaque, 96-well tissue culture plates at 25,000 cells/well. After overnight growth at 37° C., the cells were treated for 4 hr in the presence of either vehicle control or 10 μM of NCI Diversity Set compounds (http://dtp.nci.nih.gov/). After treatment, cells were washed in 100 μl cold TBS (10 mM Tris, pH 7.4, 150 mM NaCl), then fixed for one hour at 4° C. with 190 μl per well of cold 3.7% formaldehyde in TBS as described previously (Stockwell, B. R. et al. Chem. Biol., 1999, 6:71-83). Membranes were permeabilized during a five-minute incubation in ice-cold methanol at 4° C. Cells were washed with 180 μl per well 3% milk in TBS then rocked overnight at 4° C. with 50 μl per well of 3% milk in TBS containing 1:1000 dilution of anti-phospho-STAT3 (P-Tyr 705; Cell Signaling Technology, Beverly, Mass.) and 1:2000 dilution of HRP-conjugated goat anti-rabbit IgG (Jackson ImmunoResearch, West Grove, Pa.). Antibodies were aspirated and then plates were washed twice with 180 μl per well TBS. […] Quantification of results was done using GS-700 scanning densitometer (Bio-Rad Laboratories, Hercules, Calif.).

For series [2], the system named is phosphotyrosine STAT3. Description: Western blotting for phosphotyrosine STAT3 in cancer cell lines. The class given is cell-based, human. How it is done: (§1) Western Blotting. Treated cell samples were lysed in 30 mM Hepes, pH 7.5, 10 mM NaCl, 5 mM MgCl2, 25 mM NaF, 1 mM EGTA, 1% Triton-X-100, 10% glycerol, 2 mM sodium orthovanadate, 10 μg/ml aprotinin, 10 μg/ml soybean trypsin inhibitor, 25 μg/ml leupeptin, 2 mM PMSF, and 6.4 mg/ml p-nitrophenylphosphate. Phospho-STAT3, phospho-AKT, phospho-MEK, and phospho-p42/p44 MAPK antibodies were obtained from Cell Signaling Technologies, Cambridge, Mass. Antibodies to STAT3, JAK2, and phospho-INK were purchased from Santa Cruz Biotechnology, Santa Cruz, Calif. Phospho-JAK2 antibody came from Upstate Biotechnology, Lake Placid, N.Y. Membranes were blocked in either 5% milk in PBS, pH 7.4, containing 0.1% Tween-20 (PBS-T) or 1% BSA in TBS, pH 7.5, containing 0.1% Tween-20 (TBS-T). Phospho-specific antibodies (excepting P-MAPK and P-JNK) were incubated in 1% BSA in TBS-T while all other antibodies were diluted in 5% milk in PBS-T for either 2 hr at room temperature or overnight at 4° C. HRP-conjugated secondary antibodies (Jackson ImmunoResearch) were diluted in 5% milk in either PBS-T or TBS-T at 1:1000 dilution for one hour at room temperature. Western blots were visualized using enhanced chemiluminescence as described previously (Blaskovich, M. A. et al. Nat. Biotechnol., 2000, 18:1065-1070).
Immunoprecipitation of STAT3. A549 cells were treated for 4 hr with vehicle or JSI-124, then lysed in 150 mM Hepes, pH 7.5, 150 mM NaCl, 1 mM EDTA, 0.5% Nonidet P-40 (NP-40), 10% glycerol, 5 mM NaF, 1 mM DTT, 1 mM PMSF, 2 mM sodium orthovanadate, and 5 μg/ml leupeptin. Sample lysates were collected and cleared, then 500 μg of lysate was immunoprecipitated with 50 ng STAT3 antibody overnight at 4° C. then rocked with 25 μl Protein A/G PLUS agarose (Santa Cruz Biotechnology) for 1 hr at 4° C. Samples were washed four times with lysis buffer then boiled in 2×SDS-PAGE sample buffer and run on 10% SDS-PAGE gel. Protein was transferred to nitrocellulose and then blotted as above for both phospho-specific STAT3 and STAT3.
Background: Immunoblotting shows a protein as a band on a membrane.

The next series relates to JAK2. Description: Western blotting for JAK2 protein levels. Type of series: cell-based, human. The conditions noted are these: A549 and MDA-MB-468 cells. The protocol: as §1
The next series has as its system phospho-JNK. Description: Western blotting for phospho-JNK. Type of series: cell-based, human. The conditions noted are these: A549 and MDA-MB-468 cells, up to 10 μM. How it is done:
as §1

Another series concerns A549 tumors. As to the kind of experiment: Antitumor activity, A549 xenograft in nude mice. Type of series: in vivo. The source says:
Antitumor Activity in the Nude Mouse Tumor Xenograft Model. Nude mice and C57 BL-6 black mice (National Cancer Institute, Bethesda, Md.) were maintained in accordance with the Institutional Animal Care and Use Committee (IACUC) procedures and guidelines. v-Src- and oncogenic H-Ras-transformed NIH 3T3, A549, MDA-MB-468 and Calu-1 cells were harvested, resuspended in PBS and injected s.c. into the right and left flank (10×10^6 cells per flank) of 8 week old female nude mice as reported previously (Sun, J. et al. Cancer Res., 1999, 59:4919-4926). Similarly, murine B16-F10 Melanoma cells were injected s.c. into the right and left flank (10^6 cells per flank) of C57 black mice. When tumors reached about 150 mm^3, animals were randomized (five animals per group; two tumors per animal) and dosed i.p. with 0.2 ml once daily. […] The tumor volumes were determined by measuring the length (l) and the width (w) and calculating the volume (V=1w^2/2) as described previously (Sun, J. et al. Cancer Res., 1999, 59:4919-4926). Statistical significance between control and treated animals were evaluated by using Student's t-test. For the mouse survival experiments, C57 BL-6 black mice were implanted s.c. with B16-F10 cells (10^5 to 10^6 cells per flank). […] Percent surviving mice was determined by monitoring the death of mice until all mice died. […]

Series [3] is described as follows: Tolerability observations in treated mice. Type of series: in vivo. The source says: Antitumor Activity in the Nude Mouse Tumor Xenograft Model. Nude mice and C57 BL-6 black mice (National Cancer Institute, Bethesda, Md.) were maintained in accordance with the Institutional Animal Care and Use Committee (IACUC) procedures and guidelines. v-Src- and oncogenic H-Ras-transformed NIH 3T3, A549, MDA-MB-468 and Calu-1 cells were harvested, resuspended in PBS and injected s.c. into the right and left flank (10×10^6 cells per flank) of 8 week old female nude mice as reported previously (Sun, J. et al. Cancer Res., 1999, 59:4919-4926). Similarly, murine B16-F10 Melanoma cells were injected s.c. into the right and left flank (10^6 cells per flank) of C57 black mice. When tumors reached about 150 mm^3, animals were randomized (five animals per group; two tumors per animal) and dosed i.p. with 0.2 ml once daily. […] The tumor volumes were determined by measuring the length (l) and the width (w) and calculating the volume (V=1w^2/2) as described previously (Sun, J. et al. Cancer Res., 1999, 59:4919-4926). Statistical significance between control and treated animals were evaluated by using Student's t-test. For the mouse survival experiments, C57 BL-6 black mice were implanted s.c. with B16-F10 cells (10^5 to 10^6 cells per flank). On day 5 after implantation the mice were randomized (6 animals per group) and treated with either vehicle or JSI-124 (1 mg/Kg/day) for 25 days. Percent surviving mice was determined by monitoring the death of mice until all mice died. Two experiments of 12 animals each (6 control and 6 treated with JSI-124) were carried out. For statistical analysis: for each of the two experiments, mice receiving JSI-124 were compared to those receiving vehicle control with respect to survival using the permutation log rank test as implemented in the statistical software package, ProcStatXact (p-values are two sided and exact).

Molecules are shown by their SMILES. pIC50: −log10 of the molar value. “Also recorded” adds a separate entry of the source. Where two headings read alike, the source gives them in different places.

With `CC(C)(O)/C=C/C(=O)[C@](C)(O)[C@H]1[C@H](O)C[C@@]2(C)[C@@H]3CC=C4[C@@H](C=C(O)C(=O)C4(C)C)[C@]3(C)C(=O)C[C@]12C` [JSI-124, cucurbitacin I], in the series on phosphotyrosine STAT3 [1], the “phosphotyrosine STAT3 levels (cytoblot)” value is reported as “reduced phosphotyrosine STAT3 to barely detectable levels”. Moreover, the “levels of tyrosine phosphorylated STAT3 (Western blot)” value in the series with phosphotyrosine STAT3 [2] (10 μM, 4 hr, A549, MDA-MB-468, MDA-MB-231, Panc-1 and v-Src NIH 3T3 cells) is reported as “very effective at reducing the levels of tyrosine phosphorylated STAT3”. Besides, the “phosphotyrosine STAT3 levels after STAT3 immunoprecipitation” value in the series with phosphotyrosine STAT3 [2] (10 μM, 4 hr, A549 and MDA-MB-468 cells) was “reduced phosphotyrosine STAT3 to barely detectable levels”. Moreover, the “levels of tyrosine phosphorylated STAT3, various concentrations” value in the series on phosphotyrosine STAT3 [2] (A549 and MDA-MB-468 cells, 0-10 μM, 4 hr) is on record as “reduction of the levels of tyrosine phosphorylated STAT3; also recorded: suppression of phospho-STAT3 levels in both cell lines”. In the series with phosphotyrosine STAT3 [2] (A-549 cells, 0-10 μM), the “inhibition of phospho STAT3 levels (in words)” value is “inhibits both phospho STAT3 and phospho JAK2 levels”. For the same compound, the pIC50 in the series on phosphotyrosine STAT3 [2] (A-549 cells, Western blotting, read-out: IC50 for phospho-STAT3) was 6.70; in the series with phosphotyrosine STAT3 [2] (read-out: IC50 as suppressor of the JAK/STAT3 tumor survival pathway), 6.70. The JAK2 protein levels result in the series with JAK2 was “no effect on the protein levels of STAT3 and JAK2”. Besides, in the series on phospho-JNK, the phospho-JNK levels result is given as “no inhibitory effect”. Moreover, in the series on A549 tumors (0.5 mg/kg/day for 23 days, nude mice (data not shown)), the “inhibition of A549 tumor growth, reduced dose” value was found to be 52%. The “inhibition of A549 tumor growth” value in the series with A549 tumors (1 mg/kg/day i.p., nude mice) is listed as 76%. Also, in series [3] (1 mg/kg/day and 0.5 mg/kg/day i.p.), the “effects on body weight, activity or food intake of mice” value was “no effects on body weight, activity or food intake”. In addition, the “edema at the local site of drug injection (peritoneal cavity)” value in series [3] (1 mg/kg/day i.p.) is listed as “caused edema”.
